The supplement of paper PMC10307832

Legend:
Test in all cases: relative viability (nuclei count vs DMSO), 5 days (fraction); higher = more cells survive
[1] = compound: Cc1ccc(C(=O)Nc2ccc(CN3CCN(C)CC3)c(C(F)(F)F)c2)cc1C#Cc1cnc2cccnn12 [Ponatinib] + Cc1nc(NC(=O)N2CCC[C@H]2C(N)=O)sc1-c1ccnc(C(C)(C)C(F)(F)F)c1 [Alpelisib] (partner 2 µM)
In short: (§1)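 Relative viability divides the nuclei count in treated wells by that in vehicle wells. Lung cancer cell lines were seeded in 1536-well plates, dosed by pin tool the next day, and fixed and stained after 5 days in one step with final 0.05% Triton X-100, 1% formaldehyde and 1 ug/ml Hoechst. Dosing was a single drug or a fixed anchor-drug dose plus five library-drug doses (not always all listed) in √10 steps, and values are medians of duplicate plates imaged at 4×.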

[2] = compound: Cc1ccc(C(=O)Nc2ccc(CN3CCN(C)CC3)c(C(F)(F)F)c2)cc1C#Cc1cnc2cccnn12 [Ponatinib] + Cc1nc(Nc2ncc(C(=O)Nc3c(C)cccc3Cl)s2)cc(N2CCN(CCO)CC2)n1 [Dasatinib] (partner 0.075 µM)
In short: as §1

[3] = compound: Cc1ccc(Nc2nccc(N(C)c3ccc4c(C)n(C)nc4c3)n2)cc1S(N)(=O)=O [Pazopanib] + COc1cc2c(Oc3ccc(NC(=O)C4(C(=O)Nc5ccc(F)cc5)CC4)cc3F)ccnc2cc1OCCCN1CCOCC1 [Foretinib] (partner 0.25 µM)
In short: as §1

[4] = compound: Cc1ccc(Nc2nccc(N(C)c3ccc4c(C)n(C)nc4c3)n2)cc1S(N)(=O)=O [Pazopanib] + N=C(N)NC(=N)NCCc1ccccc1 [Phenformin] (partner 250 µM)
In short: as §1

Row | Cell Line | relative viability ([1]; first compound 0.002 µM) | relative viability ([1]; first compound 0.006325 µM) | relative viability ([1]; first compound 0.06325 µM) | relative viability ([1]; first compound 0.2 µM) | relative viability ([2]; first compound 0.002 µM) | relative viability ([2]; first compound 0.006325 µM) | relative viability ([2]; first compound 0.06325 µM) | relative viability ([2]; first compound 0.2 µM) | relative viability ([3]; first compound 0.01 µM) | relative viability ([3]; first compound 0.03162 µM) | relative viability ([3]; first compound 0.1 µM) | relative viability ([3]; first compound 0.3162 µM) | relative viability ([3]; first compound 1 µM) | relative viability ([4]; first compound 0.01 µM) | relative viability ([4]; first compound 0.03162 µM) | relative viability ([4]; first compound 0.1 µM) | relative viability ([4]; first compound 0.3162 µM) | relative viability ([4]; first compound 1 µM)
1 | 201T | 1.02 | 1.03 | 1.08 | 1.02 | 0.61 | 0.593 | 0.593 | 0.461 | 1.13 | 1.09 | 1.1 | 1.15 | 0.996 | 0.444 | 0.425 | 0.438 | 0.455 | 0.462
2 | A549 | 0.772 | 0.931 | 0.949 | 0.634 | – | – | – | – | 0.905 | 1.03 | 1.16 | 0.985 | 0.913 | – | 0.169 | 0.178 | 0.142 | 0.18
3 | A-427 | 1.08 | 1.06 | 1.07 | 0.919 | 0.696 | 0.784 | 0.721 | 0.481 | 0.971 | 1.21 | 1.15 | 1.02 | 1.05 | 0.309 | 0.4 | 0.286 | 0.332 | 0.288
4 | ABC-1 | 1.18 | 0.987 | 1.08 | 0.874 | 0.465 | 0.614 | 0.539 | 0.629 | 0.843 | 1.06 | – | 0.975 | 1.04 | 0.23 | 0.242 | – | 0.196 | 0.269
5 | BEN | 0.948 | 0.977 | 1.08 | 0.916 | 0.255 | 0.279 | 0.257 | 0.311 | – | 0.656 | 0.517 | 0.804 | 0.696 | – | 0.281 | 0.288 | 0.266 | 0.238
6 | CAL-12T | 1.03 | 1.12 | 1.46 | 0.979 | 0.48 | 0.37 | 0.365 | 0.219 | 1.03 | 1.06 | 1.17 | 1.05 | 0.97 | 0.595 | 0.616 | 0.544 | 0.664 | 0.581
7 | COR-L23 | 0.747 | 0.775 | 0.844 | 0.778 | 0.526 | 0.502 | 0.666 | 0.433 | 0.916 | 1.03 | 0.922 | 0.986 | 0.989 | 0.44 | 0.459 | 0.41 | 0.463 | 0.493
8 | COR-L 105 | 0.976 | 0.846 | 1.31 | 0.935 | 0.314 | 0.41 | 0.344 | 0.341 | 0.926 | 0.87 | 1.15 | 1.04 | 1.18 | 0.446 | 0.553 | 0.52 | 0.724 | 0.636
9 | Calu-6 | 0.956 | 1.04 | 1.02 | 0.685 | – | – | – | – | 0.89 | 0.954 | 0.93 | 0.848 | 0.803 | – | – | – | – | –
10 | ChaGo-K-1 | – | – | – | – | 0.487 | 0.567 | 0.488 | 0.509 | 0.934 | 0.909 | 1.01 | 0.884 | 0.946 | 0.474 | 0.428 | 0.535 | 0.547 | 0.495
11 | EBC-1 | 0.78 | 0.836 | 0.903 | 0.846 | – | – | – | – | 0.095 | 0.104 | 0.0934 | 0.103 | 0.0962 | – | – | – | – | –
12 | EKVX | 0.805 | 0.936 | 1.15 | 0.898 | 0.56 | 0.624 | 0.502 | 0.483 | 0.961 | 0.866 | 0.62 | 0.901 | 0.942 | 0.227 | 0.224 | 0.207 | 0.225 | 0.234
13 | EMC-BAC-2 | 0.695 | 0.707 | 0.82 | 0.721 | 0.335 | 0.319 | 0.323 | 0.305 | – | 0.991 | 1.01 | 1.02 | 1.06 | – | 0.513 | 0.498 | 0.536 | 0.537
14 | EPLC-272H | 0.781 | 1.12 | 1.12 | 0.942 | 0.359 | 0.33 | 0.376 | 0.279 | – | 0.762 | 0.693 | 0.758 | 0.793 | – | 0.311 | 0.308 | 0.347 | 0.392
15 | H3255 | 0.641 | 0.697 | 0.743 | 0.688 | 0.326 | 0.317 | 0.387 | 0.367 | 0.625 | 0.838 | 0.794 | 0.84 | 0.939 | 0.298 | 0.33 | 0.365 | 0.306 | 0.367
16 | HARA | 0.779 | 0.79 | 0.97 | 0.729 | 0.281 | 0.215 | 0.233 | 0.173 | 0.902 | 0.977 | 1 | 0.884 | 0.95 | 0.43 | 0.363 | 0.486 | 0.467 | 0.479
17 | HCC-15 | 0.82 | 0.906 | 0.988 | 0.805 | 0.585 | 0.61 | 0.828 | 0.61 | 0.999 | 1.01 | 1.16 | 1.01 | 1.08 | 0.476 | 0.507 | 0.498 | 0.519 | 0.505
18 | HCC-44 | 0.802 | 0.897 | 0.92 | 0.794 | – | – | – | – | – | – | – | – | – | 0.216 | 0.213 | 0.256 | 0.234 | 0.213
19 | HCC-78 | 0.321 | 0.301 | 0.408 | 0.323 | 0.33 | 0.35 | 0.296 | 0.382 | 0.523 | 0.553 | 0.524 | 0.638 | 0.701 | 0.531 | 0.696 | 0.626 | 0.635 | 0.622
20 | HCC-366 | 0.375 | 0.43 | 0.69 | 0.376 | 0.563 | 0.621 | 0.644 | 0.54 | 1.01 | 0.956 | 0.974 | 0.969 | 0.938 | 0.566 | 0.642 | 0.547 | 0.608 | 0.638
